Measured values reported in US20230201217A1 (priority 2019, published 2023).

Columns and labels:
male cynomolgus monkeys = assay: Cardiovascular and respiratory radiotelemetry in conscious cynomolgus monkeys; type: in vivo, cynomolgus monkey
Protocol: Clinical observations were performed at approximately 4 and 24 hours post-dosing.

male CD-1 mice = assay: Cardiovascular radiotelemetry in conscious CD-1 mice; type: in vivo, mouse
Source text: The purpose of this study was to explore the physiological changes associated with mortality. Animals were implanted with a radiotelemetry transmitter in the peritoneal cavity with the catheter inserted in the femoral artery and the sensor tip positioned in the abdominal aorta. […] Within one hour of dosing, average heart rate (FIG. 14) decreased about 50%, and significant decreases in systolic (FIG. 15) and diastolic blood pressure (FIG. 16). In addition, body temperature generally dropped at each collection time point, reaching a maximum difference from baseline at 120 minutes post-dose (average change up to 6.5° C.). Following administration of the 200 mg/kg dose, body temperature continued to drop (up to 10.5° C.) until all mice died (˜12 hours post-dose). These changes in body temperature were considered test article-related and correlated to the observed changes in heart rate. Terminally, there was a further decrease in all of the parameters, with the rectal temperatures falling to as low as 22° C. before the mice died. Observed effects on behavior and activity included tremors, twitches, abnormal gait, lethargy, decreased motor activity, increased response to touch and startle, seizures, gasping and slow respirations, exophthalmia, and stupor.

mice = assay: Single-dose oral toxicity; type: in vivo, mouse
Protocol: Single doses up to 300-400 mg/kg and 800 mg/kg appeared to be generally well tolerated in monkeys and rats, respectively (one monkey treated with 400 mg/kg died in the 2-week GLP study on Day 1 of dosing). […] In mice, mortality was consistently seen following single doses 150 mg/kg. Preliminary 5-day repeat-dose range-finding studies were conducted in mice, rats and monkeys. The definitive 14-day studies in mouse and monkey yielded generally similar results to those observed in the 5-day studies.

Solubility = type: physicochemical
Source text: 18-MC HCl can be supplied as a dry powder packaged in double plastic bags in an HDPE bottle with desiccant. The 18-MC HCl can be formulated at the clinical site into a solution for dosing patients. […] Based on the properties of the compound, it can also be formulated in a solid oral formulation (tablet, capsule, sachets, granules, etc.)
Most preferably, an oral dose of the composition is used. An oral dosing formulation was validated by a GLP study.

plasma protein [1] = assay: Plasma protein binding; type: in vitro ADME, Monkey
Source text: (§1) There is no information on the protein binding of any of the metabolites.

plasma protein [2] = assay: Plasma protein binding; type: in vitro ADME, Human
Source text: as §1

healthy volunteers = assay: Phase 1 first-in-human study, safety and tolerability; type: in vivo; parameters: key to AE Urinary tract infection (subject A1): Study Drug related / AE Retro-orbital headache (subject A2): Study Drug related / AE Hot coffee burn in hand and right forearm (subject A3): Study Drug related / AE Dry cough (subject A4): Study Drug related / AE Body pain (subject A5): Study Drug related / AE Occipital and frontal headache (subject A6): Study Drug related / AE Nausea (subject A1): Study Drug related / AE Arterial Hypotension (subject A1): Study Drug related / AE Pain - submandibular lymph node (subject A1): Study Drug related: 1 Not related; 2 Possible; 3 Probable
Protocol: None discontinued the study.
Safety was monitored by reported adverse events, hematology, serum chemistries (including electrolytes, renal and liver function, urinalysis, ECG and vital signs. In addition, a neurological examination (mini-mental status exam) including assessment for abnormal eye movement, nystagmus, tremors, reflexes, upper and lower extremity strength, distal sensor perception, intention tremor, the Romberg test, excessive somnolence and mental status were performed.

CYP2B6 = CYP2B6 (Homo sapiens, UniProt P20813); conditions: recombinant enzyme
Chain of CYP2B6 (P20813 whole entry): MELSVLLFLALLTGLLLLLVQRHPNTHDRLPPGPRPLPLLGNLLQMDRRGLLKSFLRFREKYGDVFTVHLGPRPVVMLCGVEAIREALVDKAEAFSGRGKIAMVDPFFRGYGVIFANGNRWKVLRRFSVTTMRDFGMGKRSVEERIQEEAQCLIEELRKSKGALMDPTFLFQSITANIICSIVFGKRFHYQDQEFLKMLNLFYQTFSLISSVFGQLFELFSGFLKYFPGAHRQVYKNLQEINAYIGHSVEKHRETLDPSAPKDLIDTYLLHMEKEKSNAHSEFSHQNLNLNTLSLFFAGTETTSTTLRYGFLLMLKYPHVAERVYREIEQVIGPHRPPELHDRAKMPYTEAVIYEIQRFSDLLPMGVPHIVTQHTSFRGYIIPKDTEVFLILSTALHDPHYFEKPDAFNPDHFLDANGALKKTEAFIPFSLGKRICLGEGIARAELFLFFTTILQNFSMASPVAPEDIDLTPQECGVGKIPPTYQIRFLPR
Protocol: (§2) Control incubations were performed for each assay with appropriate positive inhibitory controls.

CYP2C8 = CYP2C8 (Homo sapiens, UniProt P10632); conditions: recombinant enzyme
Chain of CYP2C8 (P10632 whole entry): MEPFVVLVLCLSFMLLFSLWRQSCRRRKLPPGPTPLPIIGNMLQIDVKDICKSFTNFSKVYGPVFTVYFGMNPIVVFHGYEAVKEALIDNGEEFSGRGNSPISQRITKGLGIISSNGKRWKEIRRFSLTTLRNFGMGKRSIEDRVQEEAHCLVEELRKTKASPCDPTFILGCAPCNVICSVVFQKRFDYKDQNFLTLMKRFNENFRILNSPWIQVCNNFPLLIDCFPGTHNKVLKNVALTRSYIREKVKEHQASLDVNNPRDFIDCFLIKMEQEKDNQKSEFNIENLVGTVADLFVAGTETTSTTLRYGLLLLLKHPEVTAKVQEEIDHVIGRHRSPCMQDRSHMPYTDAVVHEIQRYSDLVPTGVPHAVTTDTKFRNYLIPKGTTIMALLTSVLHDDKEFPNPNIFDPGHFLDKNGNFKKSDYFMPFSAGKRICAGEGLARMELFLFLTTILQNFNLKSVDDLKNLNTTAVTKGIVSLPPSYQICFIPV
Protocol: as §2

CYP2E1 = CYP2E1 (Homo sapiens, UniProt P05181); conditions: recombinant enzyme
Chain of CYP2E1 (P05181 whole entry): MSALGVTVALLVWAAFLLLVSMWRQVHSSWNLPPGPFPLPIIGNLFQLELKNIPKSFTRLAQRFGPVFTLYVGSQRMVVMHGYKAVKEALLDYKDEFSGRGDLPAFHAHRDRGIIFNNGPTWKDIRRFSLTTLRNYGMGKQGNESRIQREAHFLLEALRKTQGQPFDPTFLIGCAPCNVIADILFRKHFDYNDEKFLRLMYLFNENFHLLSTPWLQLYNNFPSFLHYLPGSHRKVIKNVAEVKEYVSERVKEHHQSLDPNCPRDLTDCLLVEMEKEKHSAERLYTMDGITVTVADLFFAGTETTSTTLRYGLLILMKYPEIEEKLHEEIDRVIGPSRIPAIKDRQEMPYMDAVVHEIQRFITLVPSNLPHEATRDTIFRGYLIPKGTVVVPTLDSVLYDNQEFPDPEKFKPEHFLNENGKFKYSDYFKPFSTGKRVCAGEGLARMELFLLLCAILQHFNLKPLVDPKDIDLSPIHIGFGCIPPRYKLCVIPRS
Protocol: as §2

[3] = Phase 1 first-in-human study, pharmacokinetics in plasma
Protocol: Fourteen normal, healthy volunteers were enrolled in the study. Seven volunteers were treated in the first cohort (3 placebo, 4 received a single dose of 20 mg of 18-MC) and seven in the second cohort (2 placebo, 5 received 8 mg as 4 mg doses of 18-MC administered at 0 and plus 10 hours). For Cohort A, volunteers were monitored in a hospital unit for 2 days (36 hours) days, and were followed up for safety at Days 3, 7 and 30. For Cohort B, volunteers were monitored in a hospital unit for 2 days (36 hours), and were followed up for safety at Days 3, 4, 7 and 30.
This study was designed as a randomized, double-blind, placebo-controlled, single-center Phase 1 first-in-human clinical trial. After screening, volunteers were admitted to the hospital for 36 hours. […] Study article was initiated on Day 1 and volunteers were discharged on Day 2. Cohort A were seen as outpatients on Days 3, 7 and 30. Cohort B were seen as outpatients on Days 3, 4, 7 and 30. 14 subjects were in the study, 5 male and 9 female.
For Cohort A, pharmacokinetic samples were obtained at baseline and at 0.5, 1.0, 2.0, 6.0, 12.0, 24, 36 hours, and 7 days post dose.
Samples underwent two analyses: A research assay (LG/MS/TOF) developed by MicroConstants, Inc., was used to collect the raw data. The first analysis was to quantitate 18-MG and the known metabolites M2, M4 and M5 (using standard curves included in the run). The second analysis compared the peak heights of 18-MG and all the metabolites that could be identified in terms of relative peak height (M1 through M10, and P1-P3).

[4] = tested on: isolated rabbit Purkinje fibers; assay: Action potential duration in rabbit cardiac Purkinje fibers
Protocol: The in vitro effect of 18-MC on the cardiac action potential was evaluated in isolated rabbit Purkinje fibers (FIG. 13). […] Fibers with resting potentials more negative than −80 mV and normal action potential morphology (APD90≥150 ms) were used in the study. Fibers were stimulated continuously at BCL of 1 second for at least 5 minutes. At the end of this period, baseline control APD rate dependence was measured using stimulus pulse trains consisting of approximately 50 pulses at BCL of 1 and 0.5 seconds. After returning to BCL of 1 second, 18-MC (or dl-sotalol) at the lowest concentration was applied for at least 20 minutes to allow equilibration, and the stimulus trains repeated. […] The average responses from the last five recorded action potentials from each stimulus train were analyzed for each test condition.
Electrophysiological recordings were performed with four nominal concentrations of 18-MC (0.3, 1, 3, and 10 μM) added sequentially to four preparations at two stimulus intervals (basic cycle lengths of 1 s and 0.5 s). The effects of 18-MC on action potential parameters were compared to time-matched vehicle control sequences.

[5] = cohort B, 4 mg PO at 0 and +10 hours

## COCCC1CC2CN3CCc4c([nH]c5ccccc45)C(C(=O)OC)(C2)C13.Cl (centres unmarked) [18-MC HCl, 18-Methoxycoronaridine hydrochloride]
Male cynomolgus monkeys; 30, 90, or 270 mg/kg single dose
  cardiovascular parameters, body temperature, respiratory parameters: did not affect
Male cynomolgus monkeys; single dose, highest dose tested
  NOEL on the cardiovascular and respiratory systems: 270 mg/kg
Male CD-1 mice; 100 mg/kg, 120 minutes post-dose
  average change in body temperature from baseline: up to 6.5 °C
Male CD-1 mice; after 100 mg/kg oral dose
  mortality: Two of the 6 animals died
Male CD-1 mice; after the 200 mg/kg dose (8 hours after 100 mg/kg)
  mortality: all of the other animals died
Male CD-1 mice; before the mice died
  rectal temperature, terminal: ≥ 22 °C
Male CD-1 mice; following the 200 mg/kg dose
  drop in body temperature: up to 10.5 °C
Male CD-1 mice; within one hour of dosing
  decrease in average heart rate: about 50%
mice
  single doses with mortality consistently seen: 150 mg/kg
Solubility
  solubility in dimethyl sulfoxide (DMSO): freely soluble
Solubility; 5% dextrose (pH 3.0)
  maximum solubility: 40 mg/mL
Solubility; neutral and alkaline pH
  solubility in aqueous solution: poorly soluble

## COCC[C@H]1CC2CN3CCc4c([nH]c5ccccc45)[C@](C(=O)OC)(C2)[C@H]13 [18-MC, 18-methoxycoronaridine]
Plasma protein [1]; 200 ng/mL
  % Bound Mean ± SD: 98.4 ± 0.643%
Plasma protein [1]; 600 ng/mL
  % Bound Mean ± SD: 97.7 ± 0.100%
Plasma protein [1]; 5,000 ng/mL
  % Bound Mean ± SD: 97.2 ± 0.100%
Plasma protein [1]; average of 3 concentrations
  Average % Bound Mean ± SD: 97.8 ± 0.603%
Plasma protein [2]; 200 ng/mL
  % Bound Mean ± SD: 96.8 ± 0.321%
Plasma protein [2]; 600 ng/mL
  % Bound Mean ± SD: 97.6 ± 0.153%
Plasma protein [2]; 5,000 ng/mL
  % Bound Mean ± SD: 95.2 ± 0.473%
Plasma protein [2]; average of 3 concentrations
  Average % Bound Mean ± SD: 96.5 ± 1.22%
Healthy volunteers; 20 mg single dose, 4 mg twice
  serious adverse events: No serious adverse events occurred
Healthy volunteers; FIH study
  dose at which safe in healthy volunteers: up to 20 mg
Healthy volunteers; day noted 1
  AE Arterial Hypotension (subject A1): Severity: 1
  AE Arterial Hypotension (subject A1): Study Drug related: 2
  AE Nausea (subject A1): Severity: 1
  AE Nausea (subject A1): Study Drug related: 2
  AE Pain - submandibular lymph node (subject A1): Severity: 1
  AE Pain - submandibular lymph node (subject A1): Study Drug related: 2
  AE Retro-orbital headache (subject A2): Severity: 1
  AE Retro-orbital headache (subject A2): Study Drug related: 2
Healthy volunteers; day noted 2-30
  AE Urinary tract infection (subject A1): Severity: 2
  AE Urinary tract infection (subject A1): Study Drug related: 1
Healthy volunteers; day noted 4
  AE Occipital and frontal headache (subject A6): Severity: 2
  AE Occipital and frontal headache (subject A6): Study Drug related: 1
Healthy volunteers; day noted 4 (CRF entry error)
  AE Dry cough (subject A4): Severity: 1
  AE Dry cough (subject A4): Study Drug related: 3
Healthy volunteers; day noted 7
  AE Hot coffee burn in hand and right forearm (subject A3): Severity: 1
  AE Hot coffee burn in hand and right forearm (subject A3): Study Drug related: 1
Healthy volunteers; day noted 30
  AE Body pain (subject A5): Severity: 1
  AE Body pain (subject A5): Study Drug related: 1
CYP2B6
  IC50: > 100 µM
CYP2C8
  IC50: 19 µM
CYP2E1
  IC50: 28 µM
[3]; 4 mg at 0 and +10 hours (8 mg total), longer sampling interval
  elimination half-life: about 48 hours
[3]; cohort A or B, generally
  Tmax: ½
[3]; cohort A, 20 mg PO single dose
  AUCall, Average: 339 ng·h/mL
  AUCall, Max: 447 ng·h/mL
  AUCall, Min: 241 ng·h/mL
  Cmax, Average: 119 ng/mL
  Cmax, Max: 182 ng/mL
  Cmax, Min: 92 ng/mL
  Half-Life, Average: 17.9 h
  Half-Life, Max: 21.7 h
  Half-Life, Min: 14.2 h
  Tmax, Average: 0.5 h
  Tmax, Max: 0.5 h
  Tmax, Min: 0.5 h
[3]; [5]
  AUCall, Average: 195 ng·h/mL
  AUCall, Max: 400 ng·h/mL
  AUCall, Min: 124 ng·h/mL
  Cmax, Max: 46 ng/mL
  Cmax, Min: 20 ng/mL
  Half-Life, Average: 16.9 h
  Half-Life, Max: 52.2 h
  Half-Life, Min: 3.0 h
  Tmax, Average: 2.55 h
  Tmax, Max: 10.25 h
  Tmax, Min: 0.5 h
[4]; 3 μM, 1 second BCL
  APD60: statistically significant (p<0.05) shortening
[4]; 10 μM, 0.5 and 1 s BCL
  APD60: statistically significant (P<0.05) shortening
[4]; any concentration tested, two stimulus intervals
  resting membrane potential, action potential amplitude, Vmax: did not induce significant changes
